# Test system: DOHH-2
# Assay: Antiproliferative activity against human DOHH2 cells assessed as reduction in cell viability after 72 hrs by MTT assay
# Conditions: DOHH-2, 72 h
row,SMILES,IC50 [µM]
1,Nc1ncnc2c1c(-c1cccc(Cl)c1)nn2CC(Cl)c1ccccc1 (racemic),27.4
2,Nc1ncnc2c1c(-c1ccc(I)cc1)nn2CC(Cl)c1ccccc1 (racemic),3.68
3,CCc1ccc(-c2nn(CC(Cl)c3ccccc3)c3ncnc(N)c23)cc1 (racemic),21.2
4,Nc1ncnc2c1c(-c1ccc(CO)cc1)nn2CC(O)c1ccccc1 (racemic),12.1
5,CC(Cn1nc(-c2ccc(F)cc2)c2c(N)ncnc21)c1ccccc1 (racemic),21.3
6,CC(Cn1nc(-c2ccc([N+](=O)[O-])cc2)c2c(N)ncnc21)c1ccccc1 (racemic),> 100
7,CCCc1ccc(-c2nn(CC(Cl)c3ccccc3)c3ncnc(N)c23)cc1 (racemic),4.38

# Test system: Farage
# Assay: Antiproliferative activity against human Farage cells assessed as reduction in cell viability after 72 hrs by MTT assay
# Conditions: not given
row,SMILES,IC50 [µM]
1,Nc1ncnc2c1c(-c1cccc(Cl)c1)nn2CC(Cl)c1ccccc1 (racemic),30.9
2,Nc1ncnc2c1c(-c1ccc(I)cc1)nn2CC(Cl)c1ccccc1 (racemic),12.6
3,CCc1ccc(-c2nn(CC(Cl)c3ccccc3)c3ncnc(N)c23)cc1 (racemic),22.7
4,Nc1ncnc2c1c(-c1ccc(CO)cc1)nn2CC(O)c1ccccc1 (racemic),27
5,CC(Cn1nc(-c2ccc(F)cc2)c2c(N)ncnc21)c1ccccc1 (racemic),22.8
6,CC(Cn1nc(-c2ccc([N+](=O)[O-])cc2)c2c(N)ncnc21)c1ccccc1 (racemic),> 100
7,CCCc1ccc(-c2nn(CC(Cl)c3ccccc3)c3ncnc(N)c23)cc1 (racemic),29.4

# Test system: SU-DHL-8
# Assay: Antiproliferative activity against human SUDHL8 cells assessed as reduction in cell viability after 72 hrs by MTT assay
# Conditions: SU-DHL-8, 72 h
row,IC50 [µM],SMILES
1,13.7,Nc1ncnc2c1c(-c1cccc(Cl)c1)nn2CC(Cl)c1ccccc1 (racemic)
2,11.5,Nc1ncnc2c1c(-c1ccc(I)cc1)nn2CC(Cl)c1ccccc1 (racemic)
3,17.5,CCc1ccc(-c2nn(CC(Cl)c3ccccc3)c3ncnc(N)c23)cc1 (racemic)
4,27.2,Nc1ncnc2c1c(-c1ccc(CO)cc1)nn2CC(O)c1ccccc1 (racemic)
5,12.1,CC(Cn1nc(-c2ccc(F)cc2)c2c(N)ncnc21)c1ccccc1 (racemic)
6,> 100,CC(Cn1nc(-c2ccc([N+](=O)[O-])cc2)c2c(N)ncnc21)c1ccccc1 (racemic)
7,6.72,CCCc1ccc(-c2nn(CC(Cl)c3ccccc3)c3ncnc(N)c23)cc1 (racemic)

# Test system: SU-DHL-6
# Assay: Antiproliferative activity against human SUDHL6 cells assessed as reduction in cell viability after 72 hrs by MTT assay
# Conditions: SU-DHL-6, 72 h
row,IC50 [µM],SMILES
1,> 100,Nc1ncnc2c1c(-c1cccc(Cl)c1)nn2CC(Cl)c1ccccc1 (racemic)
2,13.2,Nc1ncnc2c1c(-c1ccc(I)cc1)nn2CC(Cl)c1ccccc1 (racemic)
3,29.7,CCc1ccc(-c2nn(CC(Cl)c3ccccc3)c3ncnc(N)c23)cc1 (racemic)
4,34.2,Nc1ncnc2c1c(-c1ccc(CO)cc1)nn2CC(O)c1ccccc1 (racemic)
5,22.9,CC(Cn1nc(-c2ccc(F)cc2)c2c(N)ncnc21)c1ccccc1 (racemic)
6,> 100,CC(Cn1nc(-c2ccc([N+](=O)[O-])cc2)c2c(N)ncnc21)c1ccccc1 (racemic)
7,31.1,CCCc1ccc(-c2nn(CC(Cl)c3ccccc3)c3ncnc(N)c23)cc1 (racemic)

# Test system: HuT78
# Assay: Antiproliferative activity against human HUT78 cells assessed as reduction in cell viability after 72 hrs by MTT assay
# Conditions: HuT78, 72 h
row,SMILES,IC50 [µM]
1,Nc1ncnc2c1c(-c1cccc(Cl)c1)nn2CC(Cl)c1ccccc1 (racemic),> 100
2,Nc1ncnc2c1c(-c1ccc(I)cc1)nn2CC(Cl)c1ccccc1 (racemic),12
3,CCc1ccc(-c2nn(CC(Cl)c3ccccc3)c3ncnc(N)c23)cc1 (racemic),58
4,Nc1ncnc2c1c(-c1ccc(CO)cc1)nn2CC(O)c1ccccc1 (racemic),> 100
5,CC(Cn1nc(-c2ccc(F)cc2)c2c(N)ncnc21)c1ccccc1 (racemic),> 100
6,CC(Cn1nc(-c2ccc([N+](=O)[O-])cc2)c2c(N)ncnc21)c1ccccc1 (racemic),> 100
7,CCCc1ccc(-c2nn(CC(Cl)c3ccccc3)c3ncnc(N)c23)cc1 (racemic),9.9

# Test system: FEPD
# Assay: Antiproliferative activity against human FEPD cells assessed as reduction in cell viability after 72 hrs by MTT assay
# Conditions: not given
row,SMILES,IC50 [µM]
1,Nc1ncnc2c1c(-c1cccc(Cl)c1)nn2CC(Cl)c1ccccc1 (racemic),24.9
2,Nc1ncnc2c1c(-c1ccc(I)cc1)nn2CC(Cl)c1ccccc1 (racemic),20.5
3,CCc1ccc(-c2nn(CC(Cl)c3ccccc3)c3ncnc(N)c23)cc1 (racemic),21.5
4,Nc1ncnc2c1c(-c1ccc(CO)cc1)nn2CC(O)c1ccccc1 (racemic),26.5
5,CC(Cn1nc(-c2ccc(F)cc2)c2c(N)ncnc21)c1ccccc1 (racemic),> 100
6,CC(Cn1nc(-c2ccc([N+](=O)[O-])cc2)c2c(N)ncnc21)c1ccccc1 (racemic),> 100
7,CCCc1ccc(-c2nn(CC(Cl)c3ccccc3)c3ncnc(N)c23)cc1 (racemic),29.2

# Test system: H9
# Assay: Antiproliferative activity against human H9 cells assessed as reduction in cell viability after 72 hrs by MTT assay
# Conditions: H9, 72 h
row,SMILES,IC50 [µM]
1,Nc1ncnc2c1c(-c1cccc(Cl)c1)nn2CC(Cl)c1ccccc1 (racemic),22.1
2,Nc1ncnc2c1c(-c1ccc(I)cc1)nn2CC(Cl)c1ccccc1 (racemic),11.6
3,CCc1ccc(-c2nn(CC(Cl)c3ccccc3)c3ncnc(N)c23)cc1 (racemic),24.2
4,Nc1ncnc2c1c(-c1ccc(CO)cc1)nn2CC(O)c1ccccc1 (racemic),22.3
5,CC(Cn1nc(-c2ccc(F)cc2)c2c(N)ncnc21)c1ccccc1 (racemic),18.8
6,CC(Cn1nc(-c2ccc([N+](=O)[O-])cc2)c2c(N)ncnc21)c1ccccc1 (racemic),> 100
7,CCCc1ccc(-c2nn(CC(Cl)c3ccccc3)c3ncnc(N)c23)cc1 (racemic),4.74

# Test system: HH
# Assay: Antiproliferative activity against human HH cells assessed as reduction in cell viability after 72 hrs by MTT assay
# Conditions: not given
row,SMILES,IC50 [µM]
1,Nc1ncnc2c1c(-c1cccc(Cl)c1)nn2CC(Cl)c1ccccc1 (racemic),43.1
2,Nc1ncnc2c1c(-c1ccc(I)cc1)nn2CC(Cl)c1ccccc1 (racemic),5.24
3,CCc1ccc(-c2nn(CC(Cl)c3ccccc3)c3ncnc(N)c23)cc1 (racemic),21.1
4,Nc1ncnc2c1c(-c1ccc(CO)cc1)nn2CC(O)c1ccccc1 (racemic),17.3
5,CC(Cn1nc(-c2ccc(F)cc2)c2c(N)ncnc21)c1ccccc1 (racemic),11.8
6,CC(Cn1nc(-c2ccc([N+](=O)[O-])cc2)c2c(N)ncnc21)c1ccccc1 (racemic),> 100
7,CCCc1ccc(-c2nn(CC(Cl)c3ccccc3)c3ncnc(N)c23)cc1 (racemic),48.5
